From PMC5154303, “Flavonol and imidazole derivatives block HPV16 E6 activities and reactivate apoptotic pathways in HPV^+ cells” (Cell Death & Disease, 2016)

Key:
Format in all cases: cell-based, human
UMSCC29 = test: TRAIL-induced cell death in HPV− HNSCC line UMSCC29 (MTT); conditions: HPV− #29, myricetin 0–200 μM or spinacine 0–100 μM, 50 ng/ml TRAIL
Protocol: (§1) Figure 7 Myricetin and spinacine (5) can re-sensitize HPV^+, but not HPV^−, head and neck cancer cell lines to treatment with TRAIL. (a) Both HPV^− and HPV^+ HN cancer cell lines display resistance to TRAIL treatment. (b) HPV^− (UMSCC 29 and SCC 84) and (c) HPV^+ (UMSCC 47, UPCI-SCC90-UP-Clone 35, and UM-SCC47-TC-Clone 3) head and neck cancer cell lines (2 × 10^4 cells per well) were seeded into 96-well plates and allowed to incubate overnight, and then cells were pretreated with myricetin (0–200 μM) or spinacine (0–100 μM) for 4 h. […] Cell viability was measured by the MTT assay, and the viability of cells untreated with small molecules was set at 100%. Experiments were performed in triplicate, and error bars indicate the S.D.
(§2) The extracellular domain of human TRAIL was cloned into a pTriEx expression plasmid containing N-terminal Hisx6 tag. His-TRAIL was expressed in the E. coli BL-21 pLys strain and purified as previously described. Doxorubicin and cisplatin were purchased from Sigma. His-TRAIL, doxorubicin, and cisplatin were diluted in PBS to the desired concentration before using. […] All experiments were repeated at least three times (three biological replicates, carried out on different days), with each experimental group measured in triplicate within each of these individual experiments. […]

UMSCC 29 = test: Sensitization to doxorubicin in HPV− HNSCC line UMSCC 29 (MTT); conditions: HPV− #29, compound 0–12.5 μM, 2 μM doxorubicin
Protocol: (§3) Figure 8 Myricetin and spinacine (5) can re-sensitize HPV^+, but not HPV^−, HNSCC cell lines to treatment with doxorubicin. Two HPV^− (UMMSCC 29 and SCC 84) and three HPV^+ (UMSCC 47, UPCI-SCC90-UP-Clone 35, and UM-SCC47-TC Clone 3) head and neck cancer cell lines (2 × 10^4 cells per well) were seeded into 96-well plates and allowed to incubate overnight, and then cells were pretreated with myricetin or spinacine (0–12.5 μM) for 4 h. In all, 2 μM of doxorubicin was added, and the cells were allowed to incubate overnight. Cell viability was measured by MTT assay, and the viability of cells untreated with small molecules was set at 100%. Experiments were performed in triplicate, and error bars indicate the S.D.
as §2

caspase 8 = test: Caspase 8 level in SiHa cells by immunoblot; conditions: 24 h
Protocol: Figure 6 Treatment with myricetin and spinacine (5) increases cellular levels of caspase 8 and p53. (a) SiHa cells (1 × 10^6 per well) were seeded into a six-well plate and allowed to incubate overnight. The indicated concentrations of myricetin and spinacine were added, and then cells were incubated for 24 h. Cells were then washed in 1 × PBS and then harvested, and the resulting level of caspase 8 was measured by immunoblot. (b) SiHa and C33A cells (1 × 10^6 per well) were seeded into a six-well plate and allowed to incubate overnight. In all, 200 μM of myricetin and 100 μM spinacine were added together with 4 μg/ml mitomycin C and incubated for 24 h. The resulting level of p53 was measured by enzyme-linked immunosorbent assay, and the level of p53 found in untreated cells was set at 100%. Experiments were performed in triplicate, and error bars indicate the S.D.
Cells (1 × 10^6) were collected and washed with PBS. All liquid was removed by centrifugation at 3000 r.p.m. for 5 min at 4 °C. […] Signals were measured using the Odyssey Infrared Imaging system (LI-COR Biosciences) and expressed in relative light units.

SiHa cells = test: Cell toxicity in SiHa cells without TRAIL (MTT); conditions: overnight
Protocol: Figure 3 (a) HPV^+ SiHa cells are resistant to TRAIL-induced apoptosis as compared with the human osteosarcoma cell line U2OS. Cells (2 × 10^4 cells per well) were seeded into a 96-well plate, allowed to incubate overnight, and then treated with the indicated concentration of TRAIL in the presence of cycloheximide (5 μg/ml). The viability of cells was measured after overnight incubation using the MTT assay; the viability of cells untreated with TRAIL was set at 100% for each group. (b) The indicated concentrations of three small molecules were added to SiHa cells, and an MTT assay was preformed after overnight incubation. The viability of cells untreated with small molecules was set as 100%. (c) The indicated concentrations of myricetin or spinacine were added 4 h prior to TRAIL (100 ng/ml) in the presence of cycloheximide (5 μg/ml) and incubated at 37 °C overnight. […] Cell viability was measured after overnight incubation using the MTT assay, and the viability of cells untreated with either myricetin or spinacine was set at 100%. […]
The extracellular domain of human TRAIL was cloned into a pTriEx expression plasmid containing N-terminal Hisx6 tag. […] All experiments were repeated at least three times (three biological replicates, carried out on different days), with each experimental group measured in triplicate within each of these individual experiments. […]

SCC 84 = test: Sensitization to doxorubicin in HPV− HNSCC line SCC 84 (MTT); conditions: HPV− #84, compound 0–12.5 μM, 2 μM doxorubicin
Protocol: as §3, §2

UPCI-SCC90-UP-Clone 35 = test: TRAIL-induced cell death in HPV+ HNSCC line UPCI-SCC90-UP-Clone 35 (MTT); conditions: HPV+ #90, 40 μM compound 4 h, 50 ng/ml TRAIL + cycloheximide
Protocol: as §1, §2

Structure (SMILES) | response to TRAIL in presence and absence of compound (UMSCC29) | response to doxorubicin in presence and absence of compound (UMSCC 29) | caspase 8 level (caspase 8; myricetin at 100 and 200 μM) | toxicity to SiHa cells in the absence of TRAIL (SiHa cells) | response to doxorubicin in presence and absence of compound (SCC 84) | enhancement of TRAIL-induced cell death (UPCI-SCC90-UP-Clone 35) | caspase 8 level (caspase 8; spinacine at 50 to 200 μM)
O=c1c(O)c(-c2cc(O)c(O)c(O)c2)oc2cc(O)cc(O)c12 [Myricetin, myricetin, reference compound] | resistant | resistant | increase | low toxicity | resistant | 30% | 
O=C(O)C1Cc2[nH]cnc2CN1 (stereo not drawn) [Spinacine (5), 4,5,6,7-tetrahydro-1H-imidazo[4,5–c]pyridine-6-carboxylic acid] | resistant | resistant |  | low toxicity | resistant | up to 50% | increase
